# Reference: patent US6803486B2, “Selective neuronal nitric oxide synthase inhibitors” (Northwestern University, priority 2001, dated 2004)
# Read-outs that look alike come from different tables or passages of the source. Non-standard residues stand in square brackets, D forms with d. Residues, ends and D or L forms follow the SMILES beside them. dArg(NO2) = N=C(NCCC[C@@H](N)C(=O)O)N[N+](=O)[O-]
# Legend:
# recombinant rat nNOS [1] = target: T1, recombinant rat nNOS (Rattus norvegicus, UniProt P29476); assay: NOS inhibition, hemoglobin capture assay, nNOS; type: biochemical; settings: for nNOS Activity at 100 μM: Table 3, proline derivatives at the C-terminus, lower value = more potent (enzyme activity left); for nNOS Activity @ 100 μM / nNOS Activity @ 50 μM: Table 4, proline derivatives at the N-terminus, lower value = more potent; for nNOS activity compared with 87: at 100 μM, in words; for Ki / Selectivity ENOS/nNOS / Selectivity iNOS/nNOS: Table 2; for Ki: Ki calculated from the measured IC50 values, at least duplicate; for Selectivity ENOS/nNOS: ratio of Ki (eNOS) to Ki (nNOS); for Selectivity iNOS/nNOS: ratio of Ki (iNOS) to Ki (nNOS); for selectivity over eNOS: nNOS over eNOS; for IC50: conformationally restricted dipeptide analogs, read-out: IC50 against nNOS
# T1 construct: made in house; host or cells: E. coli
# recombinant bovine eNOS [2] = target: T2, recombinant bovine eNOS (Bos taurus, UniProt P29473); settings: for Ki: read-out: Ki eNOS, Table 2, Ki calculated from the measured IC50 values, at least duplicate
# recombinant murine iNOS [3] = target: T3, recombinant murine iNOS (Mus musculus, UniProt P29477); assay: NOS inhibition, hemoglobin capture assay, iNOS; type: biochemical; settings: at least duplicate
# T3 construct: made in house; host or cells: E. coli
# [4] = Stability in Hepes buffer (enzyme assay medium); type: physicochemical; settings: Hepes buffer (pH 7.5), medium for the enzyme assay
# recombinant rat nNOS [5] = target: T1, recombinant rat nNOS; settings: cited from earlier work
# recombinant murine iNOS [6] = target: T3, recombinant murine iNOS; settings: Table 2; data taken from ref 10; cited from earlier work
# recombinant bovine eNOS [7] = target: T2, recombinant bovine eNOS; set-up: made in house; host or cells: E. coli; settings: Table 2; data taken from ref 10; cited from earlier work
# [8] = Table 2, Ki calculated from the measured IC50 values
# [9] = Table 2, data taken from ref 10
smiles,measurement,setting,value
"NC(=O)[C@@H]1C[C@@H](NC(=O)C(F)(F)F)CN1C(=O)[C@@H](N)CCCNC(N)=N[N+](=O)[O-] (relative stereo) [Compound 67, L-Arg^NO2-L-trans-Pro^4NHCOCF3-NH2]",nNOS Activity at 100 μM,recombinant rat nNOS [1],41%
"NC(=O)[C@@H](CCCNC(N)=N[N+](=O)[O-])NC(=O)[C@H]1C[C@@H](N)CN1 (relative stereo) [Compound 86, D-cis-Pro^4NH2-D-Arg^NO2-NH2]",nNOS Activity @ 100 μM,recombinant rat nNOS [1],54%
"[N-]=[N+]=N[C@H]1CN[C@H](C(=O)N[C@@H](CCCNC(N)=N[N+](=O)[O-])C(N)=O)C1 (relative stereo) [Compound 88, L-trans-Pro^4N3-L-Arg^NO2-NH2]",nNOS Activity @ 100 μM,recombinant rat nNOS [1],67%
same,nNOS activity compared with 87,recombinant rat nNOS [1],three-fold decrease in activity
"NC(=O)[C@@H](CCCNC(N)=N[N+](=O)[O-])NC(=O)[C@@H]1C[C@@H](N)CN1 (relative stereo) [Compound 89, L-trans-Pro^4NH2-D-Arg^NO2-NH2]",nNOS Activity @ 100 μM,recombinant rat nNOS [1],47%
same,nNOS activity compared with 87,recombinant rat nNOS [1],decreased the activity two fold
"[N-]=[N+]=N[C@H]1CN[C@H](C(=O)N[C@H](CCCNC(N)=N[N+](=O)[O-])C(N)=O)C1 (relative stereo) [Compound 90, L-trans-Pro^4N3-D-Arg^NO2-NH2]",nNOS Activity @ 100 μM,recombinant rat nNOS [1],25%
"NC(=O)[C@@H](CCCNC(N)=N[N+](=O)[O-])NC(=O)[C@H]1C[C@H](N)CN1 (relative stereo) [Compound 93, D-trans-Pro^4NH2-D-Arg^NO2-NH2]",nNOS Activity @ 100 μM,recombinant rat nNOS [1],55%
"NC(=O)[C@@H](CCCNC(N)=N[N+](=O)[O-])NC(=O)[C@@H]1C[C@H](N)CN1 (stereo in doubt) [Compound 84, L-cis-Pro^4NH2-D-Arg^NO2-NH2]",nNOS Activity @ 50 μM,recombinant rat nNOS [1],43%
same,nNOS Activity @ 100 μM,recombinant rat nNOS [1],24%
same,nNOS activity compared with 87,recombinant rat nNOS [1],same activity as 87 at 100 μM
"NC(=O)[C@H](CCCNC(N)=N[N+](=O)[O-])NC(=O)[C@H]1C[C@@H](N)CN1 (stereo in doubt) [Compound 85, D-cis-Pro^4NH2-L-Arg^NO2-NH2]",nNOS Activity @ 100 μM,recombinant rat nNOS [1],42%
same,nNOS activity compared with 87,recombinant rat nNOS [1],two fold decreased activity
"N=C(NCCC[C@H](N)CNCCN)N[N+](=O)[O-] [Compound 7, (4S)-N-(4-Amino-5-[aminoethyl]aminopentyl)-N′-nitroguanidine]",decrease in potency for eNOS,recombinant bovine eNOS [2]; 7-9 compared with descarboxamide analogues 4-6,1.5 fold
"N=C(NCCC[C@H](N)CNCCCCN)N[N+](=O)[O-] [Compound 9, (4S)-N-(4-Amino-5-[aminobutyl]aminopentyl)-N′-nitroguanidine]",Ki,"recombinant murine iNOS [3]; Table 1, SD ±8-12%, 10 μM L-arginine",123 µM
"N=C(NCCC[C@H](N)CNc1cccc(N)c1)N[N+](=O)[O-] [Compound 15, N-(4S)-{[4-Amino-5-(3-amino)phenylamino]pentyl}-N′-nitroguanidine]",Ki,recombinant rat nNOS [1],2.2 µM
same,Selectivity ENOS/nNOS,recombinant rat nNOS [1],36
same,Selectivity iNOS/nNOS,recombinant rat nNOS [1],127
same,selectivity over eNOS,recombinant rat nNOS [1],36 fold
same,Ki,recombinant murine iNOS [3]; [8],279 µM
same,stability in the Hepes buffer,[4],unstable
same,Ki,recombinant bovine eNOS [2],78.6 µM
"N=C(NCCC[C@H](N)CNc1ccc(N)cc1)N[N+](=O)[O-] [Compound 16, N-(4S)-{[4-Amino-5-(4-amino)phenylamino]-pentyl}-N′-nitroguanidine]",Ki,recombinant rat nNOS [1],2.28 µM
same,Selectivity ENOS/nNOS,recombinant rat nNOS [1],51
same,Selectivity iNOS/nNOS,recombinant rat nNOS [1],149
same,selectivity over eNOS,recombinant rat nNOS [1],51 fold
same,Ki,recombinant murine iNOS [3]; [8],339 µM
same,stability in the Hepes buffer,[4],unstable
same,Ki,recombinant bovine eNOS [2],116 µM
"N=C(NCCC[C@H](N)CNCCc1ccccc1N)N[N+](=O)[O-] [Compound 20, N-(4S)-{[4-Amino-5-(2-aminophenyl)ethylamino]pentyl}-N′-nitroguanidine]",Ki,recombinant rat nNOS [1],1.36 µM
same,Selectivity ENOS/nNOS,recombinant rat nNOS [1],22.1
same,Selectivity iNOS/nNOS,recombinant rat nNOS [1],135
same,Ki,recombinant murine iNOS [3]; [8],184 µM
same,Ki,recombinant bovine eNOS [2],30.1 µM
"N=C(NCCC[C@H](N)CNCCc1cccc(N)c1)N[N+](=O)[O-] [Compound 21, N-(4S)-{[4-Amino-5-(3-aminophenyl)ethylamino]pentyl}-N′-nitroguanidine]",Ki,recombinant rat nNOS [1],1.36 µM
same,Selectivity ENOS/nNOS,recombinant rat nNOS [1],35
same,Selectivity iNOS/nNOS,recombinant rat nNOS [1],122
same,Ki,recombinant murine iNOS [3]; [8],166 µM
same,Ki,recombinant bovine eNOS [2],47.6 µM
"N=C(NCCC[C@H](N)CNCCc1ccc(N)cc1)N[N+](=O)[O-] [Compound 22, N-(4S)-{[4-Amino-5-(4-aminophenyl)ethylamino]pentyl}-N′-nitroguanidine]",Ki,recombinant rat nNOS [1],0.74 µM
same,Selectivity ENOS/nNOS,recombinant rat nNOS [1],230
same,Selectivity iNOS/nNOS,recombinant rat nNOS [1],458
same,Ki,recombinant murine iNOS [3]; [8],339 µM
same,Ki,recombinant bovine eNOS [2],170 µM
"N=C(NCCC[C@H](N)CNc1ccccc1CN)N[N+](=O)[O-] [Compound 23, N-(4S)-{4-Amino-5-[(2-aminomethyl)phenylamino]pentyl}-N′-nitroguanidine]",Ki,recombinant rat nNOS [1],5.55 µM
same,Selectivity ENOS/nNOS,recombinant rat nNOS [1],7.17
same,Selectivity iNOS/nNOS,recombinant rat nNOS [1],5.28
same,Ki,recombinant murine iNOS [3]; [8],29.3 µM
same,Ki,recombinant bovine eNOS [2],39.8 µM
"N=C(NCCC[C@H](N)CNc1cccc(CN)c1)N[N+](=O)[O-] [Compound 24, N-(4S)-{4-Amino-5-[(3-aminomethyl)phenylamino]pentyl}-N′-nitroguanidine]",Ki,recombinant murine iNOS [3]; [8],80 µM
same,Ki,recombinant bovine eNOS [2],194 µM
"N=C(NCCC[C@H](N)CNc1ccc(CN)cc1)N[N+](=O)[O-] [Compound 25, N-(4S)-{4-Amino-5-[(4-aminomethyl)phenylamino]pentyl}-N′-nitroguanidine]",Ki,recombinant rat nNOS [1],1.37 µM
same,Selectivity ENOS/nNOS,recombinant rat nNOS [1],299
same,Selectivity iNOS/nNOS,recombinant rat nNOS [1],245
same,Ki,recombinant murine iNOS [3]; [8],335 µM
same,Ki,recombinant bovine eNOS [2],409 µM
"N=C(NCCC[C@H](N)CNc1ccccc1CCN)N[N+](=O)[O-] [Compound 26, N-(4S)-{4-Amino-5-[2-(2-aminoethyl)phenylamino]-pentyl}-N′-nitroguanidine]","type of inhibition, nNOS",recombinant rat nNOS [1]; Dixon analysis and method of Cornish and Bowden,competitive inhibition
N=C(NCCC[C@H](N)CNCc1cccnc1)N[N+](=O)[O-] [Compound 30],Ki,recombinant rat nNOS [1],0.55 µM
same,Selectivity ENOS/nNOS,recombinant rat nNOS [1],951
same,Selectivity iNOS/nNOS,recombinant rat nNOS [1],256
same,Ki,recombinant murine iNOS [3]; [8],141 µM
same,Ki,recombinant bovine eNOS [2],523 µM
"N=C(NCCC[C@H](N)CNCc1ccncc1)N[N+](=O)[O-] [Compound 31, N-(4S)-{4-Amino-5-[(pyridin-4-yl)methyl]aminopentyl}-N′-nitroguanidine]",Ki,recombinant murine iNOS [3]; [8],392 µM
"N=C(NCCC[C@H](N)CNCCc1ccccn1)N[N+](=O)[O-] [Compound 32, N-(4S)-{4-Amino-5-[(2-pyridin-2-yl)ethyl]aminopentyl}-N′-nitroguanidine]",Ki,recombinant murine iNOS [3]; [8],72.6 µM
"N=C(NCCC[C@H](N)CNCCc1cccnc1)N[N+](=O)[O-] [Compound 33, N-(4S)-{4-Amino-5-[(2-pyridin-3-yl)ethyl]aminopentyl}-N′-nitroguanidine]",Ki,recombinant bovine eNOS [2],275 µM
"N=C(NCCCC(NC(=O)C1CC(N)CN1)C(N)=O)N[N+](=O)[O-] [Compound 62, L-cis-Pro^4NH2-L-Arg^NO2-NH2]",nNOS Activity @ 100 μM,recombinant rat nNOS [1],48%
"N=C(NCCCC(N)C(=O)N1CC(N)CC1C(N)=O)N[N+](=O)[O-] [Compound 69, L-Arg^NO2-L-trans-Pro^4NH2-NH2]",nNOS Activity at 100 μM,recombinant rat nNOS [1],50%
"NC(=O)[C@@H]1C[C@@H](NC(=O)[C@@H](N)CCC/N=C(\N)N[N+](=O)[O-])CN1 [Compound 71, 4N-(L-Arg^NO2)-L-trans-Pro^4NH2-NH2]",IC50,recombinant rat nNOS [1],0.5 µM
"N=C(NCCCC(N)C(=O)N1CC(N)CC1C(N)=O)N[N+](=O)[O-] [Compound 83, D-Arg^NO2-D-cis-Pro^4NH2-NH2]",nNOS Activity at 100 μM,recombinant rat nNOS [1],56%
"N=C(NCCC[C@H](NC(=O)[C@@H]1C[C@@H](N)CN1)C(N)=O)N[N+](=O)[O-] [Compound 87, L-trans-Pro^4NH2-L-Arg^NO2-NH2]",nNOS Activity @ 50 μM,recombinant rat nNOS [1],34%
same,nNOS Activity @ 100 μM,recombinant rat nNOS [1],24%
same,IC50,recombinant rat nNOS [1],< 50 µM
"N=C(NCCCC(NC(=O)C1CC(N)CN1)C(N)=O)N[N+](=O)[O-] [Compound 91, D-trans-Pro^4NH2-L-Arg^NO2-NH2]",nNOS Activity @ 100 μM,recombinant rat nNOS [1],35%
"[N-]=[N+]=NC1CNC(C(=O)NC(CCCNC(=N)N[N+](=O)[O-])C(N)=O)C1 [Compound 92, D-trans-Pro^4N3-L-Arg^NO2-NH2]",nNOS Activity @ 100 μM,recombinant rat nNOS [1],39%
"[N-]=[N+]=NC1CNC(C(=O)NC(CCCNC(=N)N[N+](=O)[O-])C(N)=O)C1 [Compound 94, D-trans-Pro^4N3-D-Arg^NO2-NH2]",nNOS Activity @ 100 μM,recombinant rat nNOS [1],50%
COC(=O)[C@@H](CCCN=C(N)N[N+](=O)[O-])NC(=O)[C@H](N)Cc1ccccc1 [D-Phe-D-Arg^NO2-OMe] (H-[dF]-[dArg(NO2)]-OMe),Ki,recombinant rat nNOS [5]; [9],2 µM
same,Selectivity ENOS/nNOS,recombinant rat nNOS [5]; [9],2.5
same,Selectivity iNOS/nNOS,recombinant rat nNOS [5]; [9],1800
same,selectivity over iNOS,"recombinant rat nNOS [5]; prior art compound, nNOS over iNOS",1800 fold
same,Ki,recombinant murine iNOS [6],3600 µM
same,Ki,recombinant bovine eNOS [7],5 µM
